US20030059511A1, “Sweetener compositions and uses thereof” (AJINOMOTO CO., INC., priority 1999, published 2003)

Assays:
[1] = Measurement of the magnification of sweetness intensity in aqueous solution (sensory evaluation against sucrose solutions); assay type: in vivo, human; details: aqueous solution
Method: (§1) An aqueous solution was prepared by diluting derivative 2 to be PSE 10% concentration (15.5 mg/1000 ml=10/6500 g/100 ml), assuming that the intensity of sweetness of derivative 2 was 6500 times that of sucrose. Separately, aqueous sucrose solutions having sucrose concentrations of (a)6.94%, (b)8.33%, (c)10%, (d)12%, and (e)14.4% were prepared. The sensory evaluation was performed by determining which sucrose solution was closest to the solution of derivative 2 in the sweetness intensity. The result of calculation of the average of points of 20 panelists was 2.25 point.
(§2) The intensity of sweetness of the solution of derivative 2 was 8.75% according to the following equation: (10.0−8.33)×0.25+8.33=8.75. Accordingly, the intense sweetness of derivative 2 was 5600 (=8.75/0.00155) times that of sucrose. According to the same experiment, the intensity of sweetness of derivative 1 was 22600 times that of sucrose. Furthermore, the magnification of sweetness intensity of other derivatives (3 to 9) can be determined by the same method.
as §2, with “intensity of” for “intense”
as §1, with “intense” for “intensity of”
The sweetness intensity of the solution of derivative 2 was 8.75% according to the following equation: (10.0−8.33)×0.25+8.33=8.75. Therefore, the magnification of sweetness intensity of derivative 2 was 5600 (=8.75/0.00155) times that of sucrose. When the same experiment was performed, the magnification of sweetness intensity of derivative 1 was 22600 times that of sucrose.

[2] = Magnification of sweetness intensity in the cola drink (sensory evaluation against sucrose cola drinks); assay type: in vivo, human
Source text: And the magnification of sweetness intensity in the cola drink can be also determined by the same method compared to the control solution of cola drink containing 10% sucrose.
The composition of cola drink is as follows.
As for the concentration of the references, the sucrose concentrations of previous (a) to (e) were used. In consequence, the magnification of sweetness intensity in the cola drink of derivative 1 was 22600 times, and that of derivative 2 was 4900 times.
And the magnification of sweetness intensity in the cola drink can be also determined by the same method compared to the reference solution of cola drink containing 10% sucrose.
The components of cola drink is as follows.
As for the concentration of the references, the sucrose concentrations of previous (a) to (e) were used. As the results, the magnification of sweetness intensity in the cola drink of derivative 1 was 22600 times, and that of derivative 2 was 4900 times.
And the magnification of sweetness in the cola drink can be also determined by the same method compared to the control solution of cola drink containing 10% sucrose.
As for the concentration of the references, the sucrose concentrations of previous (a) to (e) were used. As a result, the magnification of sweetness intensity in the cola drink of derivative 1 was 22600 times, and that of derivative 2 was 4900 times.

[3] = Taste characteristics in an aqueous solution (9 items, similarity index vs aqueous 10% sucrose solution); assay type: in vivo, human; details: PSE 10%, smaller = closer to sucrose, 8 panelists
Method: The following experiments were performed using the water obtained by ion exchanging and further distilling the water.
An aqueous solution of each of derivatives 1 to 9 having a sweetness level equivalent to that of PSE 10% was prepared, and compared with aqueous 10% sucrose solution with respect to the following 9 items, i.e., “onset of the taste”, “round taste”, “clear taste”, “lingering taste”, “peculiar taste”, “heavy taste”, “bitter taste”, “astringent taste” and “irritation”. The results were determined as 5 levels (−2 point: very weak, −1 point: a little weak, 0 point: same, +1 point: a little strong, +2 point: very strong) by 8 panelists, and the average points were calculated. The sample solutions of the derivatives equivalent to PSE 10%, were prepared by using the magnification of sweetness intensity measured in Example 1, and the amounts of each derivatives to be used were as follows.
Next, the total of the absolute value of the deviation from sucrose in each of the evaluation items consisting of the onset of the taste, the round taste, the clear taste, the lingering taste, the peculiar taste, the heavy taste, the bitter taste, the astringent taste and the irritation was divided by 9 (total number of items) to calculate the similarity (which is referred to as “similarity index”). The smaller the similarity index becomes, the better the taste balances, and the closer the taste is to the taste characteristics (quality) of sucrose. The total taste becomes preferable. The similarity indexes of each derivatives are shown as follows.
To the aqueous solution of derivative 1 having a sweetness level equivalent to that of PSE 10%, salt was added as final concentratins of 0.1%, 0.2% and 0.5% to compare with the aqueous solution of 10% sucrose for by 2 points comparison method (n=8) and evaluate the characteristics of the taste.
The sensory evaluation was performed by the same way as Example 6.
The following experiments were conducted using the water obtained by ion exchanging and further distilling tap water.
An aqueous solution of each of derivatives 1 to 9 having a sweetness level equivalent to that of PES 10% was prepared, and compared with aqueous 10% sucrose solution with respect to 9 items, namely, “the onset of the taste”, “round taste”, “clear taste”, “lingering taste”, “peculiar taste”, “heavy taste”, “bitter taste”, “astringent taste” and “irritation”. The results were determined as 5 levels (−2 point: very weak, −1 point: a little weak, 0 point: same, +1 point: a little strong, +2 point: very strong) by 8 panelists, and the average points were calculated.
Next, the total of the absolute value of the deviation from sucrose in each of the evaluation items consisting of onset of the taste, round taste, clear taste, lingering taste, peculiar taste, heavy taste, bitter taste, astringent taste and irritation was divided by 9 (total number of items) to calculate the similarity (which is refer to as “similarity index”). The smaller the similarity index becomes, the better the taste balances, and the closer the taste is to the taste characteristics (quality) of sucrose. The total taste becomes preferable. The similarity indexes of each of the derivatives are shown as follows.

[4] = Taste characteristics in a cola drink (9 items, similarity index vs cola drink containing 10% sucrose); assay type: in vivo, human; details: non-carbonated cola drink, PSE 10%, vs cola drink with 10% sucrose; smaller = closer to sucrose; 8 panelists
Method: The following experiments were performed in the same way as that of Example 2. Instead of aqueous solution, the cola drink of each of derivatives 1 to 9 having a sweetness level equivalent to that of PSE 10% was prepared, and compared with the cola drink containing 10% sucrose. The evaluation method and so on were same as that of Example 2.
When carbon dioxide is blown in the cola drink, the carbonated cola drink is prepared, however, the taste of the cola drink can be compared more easily in that without carbon dioxide. Thus the sensory evaluation of non-carbonated cola drink was performed.
The composition of the cola drink employed was same as that of Example 1.
(§3) The similarity indexes were calculated as those of aqueous solutions. The smaller the similarity index becomes, the better the taste balances, and the closer the taste is to the taste characteristics (quality) of sucrose. The total taste becomes preferable. The similarity indexes of each derivatives are shown as follows. […]
The following experiments were conducted in the same way as that of Example 15. Instead of aqueous solution, the cola drink of each of derivatives 1 to 9 having a sweetness level equivalent to that of PSE 10% was prepared, and compared with the cola drink containing 10% sucrose. All of the evaluation method and so on were same as those of Example 15.
When carbon dioxide is blown in the cola drink, the carbonated cola drink is prepared, however, the taste of the cola drink can be compared more easily in that without carbon dioxide. Thus the non-carbonated cola drink was organoleptically evaluated.
The composition of the cola drink employed was same as that of Example 14.
as §3, with “(quality)of” for “(quality) of”, “each of the” for “each”

[5] = Equivalent concentration of bitter taste, sensory evaluation, mixed amino acids (Example 29); assay type: in vivo, human; details: 2% mixed amino acids; addition: Derivative 2 10 ppm, Glycyrrhizin 250 ppm, Sucrose 50000 ppm; no addition 0.105
Method: With respect to the solution produced by adding derivative 1 (the product of the present invention), or adding nothing (no addition; the reference product) in the concentration shown in the following table 4 to the amino acid solution (2% solution of arginine by weight), the sensory evaluation was performed (using 10 panelists), and the equivalent concentration of bitter taste was determined. The results were shown in the table 4, wherein the equivalent concentration of bitter taste was shown in the concentration of aqueous solution of anhydrous caffeine which is a substance of bitter taste.
With respect to the solution produced by adding derivative 2, Glycyrrhizin or sucrose (the product of the present invention), or adding nothing (no addition; the-reference product) to 2% (by weight) solution of the mixed amino acids (leucine:valine:isoleucine=1:0.5:0.5 by weight), the sensory evaluation was performed (using 10 panelists), and the equivalent concentration of bitter taste was determined in the same way as that described in Example 28, and shown in the table 5.

[6] = cited from earlier work

## COC(=O)[C@H](Cc1ccccc1)NC(=O)[C@H](CC(=O)O)NCCC(C)(C)c1ccc(OC)c(O)c1 [Derivative 3, N-[N-[3-(3-hydroxy-4-methoxyphenyl)-3-methylbutyl]-L-α-aspartyl]-L-phenylalanine 1-methyl ester]
[1]
  Amount equivalent to PSE 10%: 2.3 mg/1000 ml
[2]
  Amount equivalent to PSE 10%: 2.7 mg/1000 ml
[3]
  Similarity index: 1.04
[4]
  Similarity index: 1.11

## COC(=O)[C@H](Cc1ccccc1)NC(=O)[C@H](CC(=O)O)NCCC(C)(C)c1ccc(OC)cc1 [Derivative 5, N-[N-[3-(4-methoxyphenyl)-3-methylbutyl] -L-α-aspartyl] -L-phenylalanine 1-methyl ester]
[1]
  Amount equivalent to PSE 10%: 11.9 mg/1000 ml
[2]
  Amount equivalent to PSE 10%: 12.5 mg/1000 ml
[3]
  Similarity index: 1.38
[4]
  Similarity index: 1.34

## COC(=O)[C@H](Cc1ccccc1)NC(=O)[C@H](CC(=O)O)NCCCc1ccc(OC)cc1O [Derivative 7, N-[N-[3-(2-hydroxy-4-methoxyphenyl)propyl]-L-α-aspartyl]-L-phenylalanine 1-methyl ester]
[1]
  Amount equivalent to PSE 10%: 9.0 mg/1000 ml
[2]
  Amount equivalent to PSE 10%: 9.4 mg/1000 ml
[3]
  Similarity index: 0.86
[4]
  Similarity index: 0.90

## COC(=O)[C@H](Cc1ccccc1)NC(=O)[C@H](CC(=O)O)NCCCc1ccc(O)cc1O [Derivative 9, N-[N-[3-(2,4-dihydroxyphenyl)propyl]-L-α-aspartyl]-L-phenylalanine 1-methyl ester]
[1]
  Amount equivalent to PSE 10%: 12.5 mg/1000 ml
[2]
  Amount equivalent to PSE 10%: 13.3 mg/1000 ml
[3]
  Similarity index: 0.77
[4]
  Similarity index: 1.00

## CC1(C)[C@@H](O[C@H]2O[C@H](C(=O)O)[C@@H](O)[C@H](O)[C@H]2O[C@@H]2O[C@H](C(=O)O)[C@@H](O)[C@H](O)[C@H]2O)CC[C@]2(C)[C@H]3C(=O)C=C4[C@@H]5C[C@@](C)(C(=O)O)CC[C@]5(C)CC[C@@]4(C)[C@]3(C)CC[C@@H]12 [Glycyrrhizin]
[5]
  Equivalent concentration of bitter taste: 0.105 g/100 g
[6]; values used for calculation in Example 5
  magnification used for the sweetness intensity of the another sweetener with a high intense sweetness: 170 times

## OC[C@H]1O[C@@](CO)(O[C@H]2O[C@H](CO)[C@@H](O)[C@H](O)[C@H]2O)[C@@H](O)[C@@H]1O [Sucrose]
[4]
  Similarity index: 0
[5]
  Equivalent concentration of bitter taste: 0.067 g/100 g
[6]; values used for calculation in Example 17, sucrose = 1
  magnification of sweetness intensity (numerical values in brackets): 1
